Reference: patent US9943500B2, “Methods of treating topical microbial infections” (LUODA PHARMA PTY LIMITED, priority 2013, dated 2018)
In brackets after ≈: the same amount, converted by molar mass. Like-named read-outs stand apart in the source and are kept apart here.

Assays:
[1] = system: 51 Australian bovine mastitis isolates, primarily S. aureus, S. agalactiae and S. uberis; test: Minimum inhibitory concentration assay, bovine mastitis isolates (Example 3); assay type: cell-based; conditions: all 51 isolates
Text: Fifty-one dairy bovine mastitis isolates, encompassing a variety of bacterial species, were isolated from milk samples collected from dairy farms in rural South Australia by the University of Adelaide Ambulatory Clinic. Cellular morphology observed from Gram stains and catalase testing was used to differentiate Staphylococcus, Streptococcus and Corynebacterium species from Gram-negative species. Further biochemical testing including coagulase, Lancefield grouping, esculin hydrolysis and CAMP tests were used to identify the isolates to species level. Where biochemical test results were not definitive in identifying species, amplification and sequencing of the 16S ribosomal RNA gene was used to confirm the identity of the isolates.
Minimum inhibitory concentration tests were performed in the manner outlined by the CLSI (CLSI 2012). Test compounds were dispensed into a 96-well microtitre tray containing 90 μl of CAMHB in 90 μl volumes and serial diluted to obtain a concentration gradient ranging from 128 μg/ml to 0.25 μg/ml (see FIG. 24). For Streptococcus species, CAMHB was replaced with a CAMHB supplement with 4% lysed-sheep blood (4% LSB:CAMHB). 4% LSB:CAMHB was prepared by mixing 5 ml sheep blood to 5 ml milliQ water, and repeated freezing at −20° C. and thawing, followed by centrifuged for 20 min at 7000 rpm. 7 ml of the supernatant was removed and added to 93 mL of CAMB.
Bacterial suspensions were prepared by emulsifying fresh colonies obtained from an overnight culture on Sheep Blood Agar (SBA) in 4 mls of 9.1 g/l physiological saline to an optical density read at 600 nm (OD600 nm) between 1.00 and 1.20. Standardised bacterial suspensions were diluted 1:10 in physiological saline and dispensed into all wells, excluding the negative control wells, in 10 μL volumes giving a final concentration of between 4×10^5 and 5×10^5 CFU/mL in each well. 96-well microtitre trays were incubated for 24 hours at 37° C. in 5% CO2 and then assessed both visually and using OD readings from a microplate reader at a wavelength of 600 nm. These tests were performed in duplicate and repeated if discrepancies in MIC values were observed between replicates.
The minimum inhibitory concentration (MIC) was determined to be the lowest concentration of antibiotic that prevented growth of bacteria both visually and using OD readings. MIC values were collated and used to determine the lowest concentration of each compound effective against 50% and 90% of isolates, known as the MIC50 and MIC90 respectively. These values as well as the range of MIC values were then used for direct comparisons between test compounds and for general comparisons with ampicillin.

[2] = cited from earlier work
[3] = system: methicillin sensitive and methicillin-resistant staphylococci; test: Minimum inhibitory concentration assay, 42 Staphylococcus isolates (Example 1); assay type: cell-based
Method: Forty-two isolates of Staphylococcus of varying species and strain type were collected from isolate collections. Biochemical testing including coagulase, latex agglutination testing for protein A, Vogues-Proskauer tests and resistance to polymyxin B were used to identify the species of Staphylococcus. All isolates were also screened for resistance to various antimicrobials commonly used for the treatment of skin infections. This was performed using the disk diffusion method and resistance standards as outlined by the CLSI. The following antimicrobials were used: amoxicillin-clavulanic acid (30 μg), cephalothin (30 μg), clindamycin (2 μg), enrofloxacin (5 μg), erythromycin (15 μg), gentamicin (10 μg), imipenem (10 μg), oxacillin (1 μg), penicillin G (10 units), tetracycline (30 μg), 1:19 trimethoprim-sulfamethoxazole (25 μg) and vancomycin (30 μg).
Minimum inhibitory concentration tests were performed according to CLSI Standards (CLSI 2012). 90 μL of one of the test compound solutions, or ampicillin, was added to the end column of a 96 well plate that contained 90 μL of CAMHB in each well. The solutions were then serially diluted across the row, leaving 2 columns for positive and negative controls (FIG. 2). A bacterial suspension was prepared by adding fresh colonies obtained from an overnight culture on Sheep Blood Agar (SBA) to a 9.1 g/L saline solution. This suspension was adjusted to a concentration of between 4×10^8 and 5×10^8 CFU/mL. […] 1 mL of this suspension was added to 9 mL of saline before being added to all wells, excluding the negative control wells, in 10 μL volumes giving a final concentration of between 4×10^5 and 5×10^5 CFU/mL in each well. The tests were then incubated for 24 hours at 37° C. and then assessed both visually and using OD readings from a microplate reader at a wavelength of 600 nm. These tests were performed in duplicate but repeated if discrepancies were observed.
The minimum inhibitory concentration (MIC) was determined to be the lowest concentration of antibiotic that prevented growth of bacteria both visually and using OD readings. Direct statistical comparisons between the test compounds and ampicillin could not be performed in light of confidential information restrictions, such as restrictions on disclosure of information relating to the compound structure, such as molecular weight. Instead, MIC values were collated and used to determine the lowest concentration of each compound that was effective against 50% and 90% of isolates, referred to as the MIC50 and MIC90 respectively. These values as well as the range of MIC values were then used for direct comparisons between test compounds and for general comparisons with ampicillin.

[4] = system: methicillin-sensitive and methicillin-resistant strains of Staphylococcus; test: Minimum bactericidal concentration determination, Staphylococcus isolates (Example 1); conditions: for bactericidal activity (MBC testing): lower concentrations; for strain type for which bactericidal activity was more consistent: methicillin-sensitive versus methicillin-resistant strains
Method: Following determination of the MIC using the 96 well MIC plate, a variation of the drop plate method was used to determine minimum bactericidal concentration (MBC) for each of the test compounds. These were analysed using samples taken from the MIC plate following incubation. […] Each concentration was pipetted in duplicate with duplicates being pipetted on an inner ring of drops. The plates were incubated at 37° C. overnight and assessed the following day for growth. The MBC was defined as the concentration at which 99.9% of colonies were eradicated, which was visually assessed by a lack of growth on the agar where the drop was placed.

[5] = dogs; cited from earlier work
[6] = system: ATCC 49775 reference strain; test: Macrodilution time-kill assay (viable counts); conditions: 24 hours
Method: (§1) Due to the detection limit of the OD measurements, the time-kill assays were also performed in macrodilution. In 15 mL tubes, 9 mL volumes of the test compounds in CAMHB were prepared at one, four and eight times the MIC concentration and 9 mL volumes of ampicillin were prepared in CAMHB at one and four times the MIC. 1 mL of a 4 to 5×10^6 bacterial suspension (as prepared for MIC testing) was added to each of the tubes as well as a growth control tube containing only 9 mL of CAMHB. These tubes were incubated at 37° C. in an orbital shaker rotating at 100 rpm for 24 hours. At 0, 1, 4, 8, 12 and 24 hours after addition of the bacteria, 100 μL samples were removed from each tube and serial diluted in 9.1 g/L saline solution. The dilutions were then plated in duplicate onto plate count agar and incubated for 24 hours at 37° C. After incubation, viable counts were obtained from the number of colonies visible on the agar and these were used to calculate the number of CFU/mL at each time point. For the macrodilution time-kill analysis, only the ATCC 49775 reference strain and MRSA 9 were assessed in order to further investigate the antibacterial activity against methicillin-resistant strains. These macrodilution time-kill assays were independently repeated and bactericidal activity was defined as a ≥3 log decrease in the number of CFU/mL.

[7] = system: ATCC 49775 reference strain; test: Microdilution time-kill assay (optical density); conditions: 48 hour period; one, four and eight times the MIC
Method: Time-kill assays were performed according to the M26-A guidelines of the CLSI, with modifications. The test compounds and ampicillin were serial diluted in CAMHB across the rows of a 96 well plate and a bacterial suspension was prepared and added in the same manner as the MIC testing. The 96 well plates were then incubated at 37° C. for 48 hours being removed at specific time points and OD for the positive control wells as well as one, four and eight times the MIC of the compound specific to the strain being tested were assessed using a spectrophotometer at a wavelength of 600 nm. The time points assessed were 0, 1, 2, 4, 8, 12, 24 and 48 hours after the addition of the bacterial suspension to the wells. Each test compound was tested in triplicate while ampicillin was tested in duplicate and this test was independently repeated. […] One strain from each of the categories of Staphylococcus in the isolate collection (methicillin-sensitive, methicillin resistant and coagulase negative) were selected as well as the ATCC reference strain for comparison. These strains were strains MSS 1, MSS 11, MRSA 9 and the ATCC 49775 reference strain.

MRSA 9 = test: Macrodilution time-kill assay (viable counts); conditions: 24 hours
Method: as §1

Row | Compound | MIC90 ([1]; read-out: MIC90) | MIC50 and MIC90 values compared with ampicillin [3] | bactericidal activity (MBC testing) [4] | strain type for which bactericidal activity was more consistent [4] | other results
1 | CC[C@@H](C(=O)[C@@H](C)[C@@H](O)[C@H](C)[C@@H]1O[C@@H]([C@@H](CC)C(=O)O)CC[C@@H]1C)[C@H]1O[C@]2(C=C[C@@H](O)[C@]3(CC[C@@](C)([C@H]4CC[C@](O)(CC)[C@H](C)O4)O3)O2)[C@H](C)C[C@@H]1C [LP 1088, Salinomycin] | 2 µg/mL (≈ 2.66 µM) | considerably lower than ampicillin | some bactericidal activity in lower concentrations | more consistently for methicillin-sensitive strains | toxicity after accidental exposure ([2]; accidental inhalation and swallowing of about 1 mg/kg, human): severe acute and chronic salinomycin toxicity; acceptable daily intake (ADI) ([2]; humans, European Food Safety Authority risk assessment): 5 µg/kg; daily intake leading to neurotoxic effects (myelin loss, axonal degeneration) [5]: more than 500 μg/kg
2 | CC[C@@H](C(=O)O)[C@@H]1O[C@@H]([C@@H](C)[C@H](O)[C@H](C)C(=O)[C@H](CC)[C@H]2O[C@]3(C=C[C@@H](O)[C@]4(CC[C@@](C)([C@H]5CC[C@](O)(CC)[C@H](C)O5)O4)O3)[C@H](C)C[C@@H]2C)[C@@H](C)C[C@@H]1C [LP 4525, Narasin] | – | – | – | – | MIC50 [1]: 0.25 µg/mL (≈ 0.327 µM); MIC90 [1]: 1 µg/mL (≈ 1.31 µM)
3 | CO[C@@H]1[C@@H](OC)[C@H](C)[C@@](O)(CC(=O)O)O[C@H]1[C@H](C)[C@H]1O[C@@]2(CC[C@@](C)([C@H]3CC[C@@](C)([C@@H]4O[C@@H]([C@H]5O[C@](C)(O)[C@H](C)C[C@@H]5C)C[C@@H]4O[C@@H]4C[C@H](OC)[C@@H](OC)[C@H](C)O4)O3)O2)C[C@H](O)[C@H]1C [LP 6315, Maduramicin] | 4 µg/mL (≈ 4.36 µM) | considerably lower than ampicillin | some bactericidal activity in lower concentrations | more consistently for methicillin-sensitive strains | bactericidal or bacteriostatic (time-kill) ([6]; most concentrations, ATCC 49775 and MRSA 9): bacteriostatic; growth (optical density) compared to growth control [7]: prevented the growth; MBC50 rank among test compounds ([4]; methicillin-resistant isolates): lowest MBC50 values; decrease in colonies (MRSA 9; four times the MIC): > 3 log10
4 | CC[C@@]1([C@@H]2O[C@@H]([C@H]3O[C@@](O)(CO)[C@H](C)C[C@@H]3C)C[C@@H]2C)CC[C@H]([C@]2(C)CC[C@]3(C[C@H](O)[C@@H](C)[C@@H]([C@@H](C)[C@@H](OC)[C@H](C)C(=O)O)O3)O2)O1 [LP 9666, Monensin] | 128 µg/mL (≈ 191 µM) | considerably lower than ampicillin | – | – | –
5 | CC1(C)S[C@@H]2[C@H](NC(=O)[C@H](N)c3ccccc3)C(=O)N2[C@H]1C(=O)O [ampicillin] | – | – | – | – | decrease in the number of viable bacteria ([6]; all concentrations tested): > 3 log10; decrease in the number of viable bacteria (MRSA 9; all concentrations tested): > 3 log10
6 | Narasin [LP 4525] | – | considerably lower than ampicillin | some bactericidal activity in lower concentrations | more consistently for methicillin-sensitive strains | –
